Source: patent publication US20240366633A1, “METHODS FOR TREATMENT OF OPIOID USE DISORDER WITH CANNABINOIDS” (ANANDA SCIENTIFIC, INC, priority 2021, published 2024)

Columns and labels:
[1] = rat, 120 mg/kg dose; cited from earlier work
[2] = healthy volunteers and subjects with various medical conditions, 10 mg to 6000 mg, single and multiple doses; cited from earlier work
CB2 receptors = CB2 receptors (Homo sapiens, UniProt P34972); conditions: cited from earlier work
[3] = Chemical characteristics of Composition A′, concentrated and diluted forms; format: physicochemical
Procedure: Several tests were conducted to determine the chemical characteristics of composition Composition A′, both in concentrated and diluted forms. […] All liquid nanodomain droplets range in size from 5 to 20 nm. The pH of both the concentrate and diluted formulations is between 6.0 and 7.5.

Chain of CB2 receptors (P34972 whole entry): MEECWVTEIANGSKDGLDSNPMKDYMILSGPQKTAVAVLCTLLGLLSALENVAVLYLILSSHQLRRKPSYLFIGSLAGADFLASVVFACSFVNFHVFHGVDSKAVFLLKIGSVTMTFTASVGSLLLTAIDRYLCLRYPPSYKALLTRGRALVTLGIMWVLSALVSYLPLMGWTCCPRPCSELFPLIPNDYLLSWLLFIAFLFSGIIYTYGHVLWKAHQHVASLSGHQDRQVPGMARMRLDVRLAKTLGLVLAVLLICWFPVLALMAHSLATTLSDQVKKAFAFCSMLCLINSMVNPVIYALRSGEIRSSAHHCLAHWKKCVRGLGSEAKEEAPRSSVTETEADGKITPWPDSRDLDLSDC

SMILES: C=C(C)[C@@H]1CCC(C)=C[C@H]1c1c(O)cc(CCCCC)cc1O [CBD, 2-(1R,6R)-3-methyl-6-prop-1-en-2-ylcyclohex-2-en-1-yl-5-pentylbenzene-1,3-diol]
- T1/2 [1]: 4 to 5 h
- Safety [2]: safe
- Affinity for CB2 receptors (CB2 receptors): low affinity
- Log P [3]: about 6
- Association of CBD with formulation phases during storage ([3]; both concentrated and diluted forms): remained associated with the surfactant and lipid phases
